Results published in patent US9174994B2, “Enhanced treatment regimens using mTor inhibitors” (INTELLIKINE LLC, priority 2011, dated 2015).

Assay: Additional study: grade 3 or greater treatment-emergent adverse events
Format: in vivo, human

CC(C)n1nc(-c2ccc3oc(N)nc3c2)c2c(N)ncnc21 [compound A]
Grade 3 or greater TEAE: Anaemia (QD Dosing (N = 29)): 1 (3%)
Grade 3 or greater TEAE: Aspartate aminotransferase increase (QD Dosing (N = 29)): 0 (0%)
Grade 3 or greater TEAE: Asthenia (QD Dosing (N = 29)): 1 (3%)
Grade 3 or greater TEAE: Blood creatinine increase (QD Dosing (N = 29)): 0 (0%)
Grade 3 or greater TEAE: Deep vein thrombosis (QD Dosing (N = 29)): 0 (0%)
Grade 3 or greater TEAE: Diarrhoea (QD Dosing (N = 29)): 1 (3%)
Grade 3 or greater TEAE: Disease progression (QD Dosing (N = 29)): 0 (0%)
Grade 3 or greater TEAE: Fatigue (QD Dosing (N = 29)): 0 (0%)
Grade 3 or greater TEAE: Gamma-glutamyltransferase increase (QD Dosing (N = 29)): 0 (0%)
Grade 3 or greater TEAE: Hyperglycaemia (QD Dosing (N = 29)): 4 (14%)
Grade 3 or greater TEAE: Hypokalaemia (QD Dosing (N = 29)): 2 (7%)
Grade 3 or greater TEAE: Hyponatraemia (QD Dosing (N = 29)): 2 (7%)
Grade 3 or greater TEAE: Hypophsphataemia (QD Dosing (N = 29)): 0 (0%)
Grade 3 or greater TEAE: Lymphopenia (QD Dosing (N = 29)): 2 (7%)
Grade 3 or greater TEAE: Mucosal Inflammation (QD Dosing (N = 29)): 0 (0%)
Grade 3 or greater TEAE: Muscular weakness (QD Dosing (N = 29)): 0 (0%)
Grade 3 or greater TEAE: Nausea (QD Dosing (N = 29)): 0 (0%)
Grade 3 or greater TEAE: Neutropenia (QD Dosing (N = 29)): 0 (0%)
Grade 3 or greater TEAE: Pruritus (QD Dosing (N = 29)): 2 (7%)
Grade 3 or greater TEAE: Rash (QD Dosing (N = 29)): 7 (24%)
Grade 3 or greater TEAE: Thrombocytopenia (QD Dosing (N = 29)): 2 (7%)
Grade 3 or greater TEAE: Vomiting (QD Dosing (N = 29)): 0 (0%)
Patients Reporting at least one Grade 3 or greater TEAE (QD Dosing (N = 29)): 17 (59%)
Grade 3 or greater TEAE: Anaemia (QDx3d QW (N = 25)): 2 (8%)
Grade 3 or greater TEAE: Aspartate aminotransferase increase (QDx3d QW (N = 25)): 0 (0%)
Grade 3 or greater TEAE: Asthenia (QDx3d QW (N = 25)): 1 (4%)
Grade 3 or greater TEAE: Blood creatinine increase (QDx3d QW (N = 25)): 2 (8%)
Grade 3 or greater TEAE: Deep vein thrombosis (QDx3d QW (N = 25)): 1 (4%)
Grade 3 or greater TEAE: Diarrhoea (QDx3d QW (N = 25)): 1 (4%)
Grade 3 or greater TEAE: Disease progression (QDx3d QW (N = 25)): 0 (0%)
Grade 3 or greater TEAE: Fatigue (QDx3d QW (N = 25)): 0 (0%)
Grade 3 or greater TEAE: Gamma-glutamyltransferase increase (QDx3d QW (N = 25)): 1 (4%)
Grade 3 or greater TEAE: Hyperglycaemia (QDx3d QW (N = 25)): 4 (16%)
Grade 3 or greater TEAE: Hypokalaemia (QDx3d QW (N = 25)): 0 (0%)
Grade 3 or greater TEAE: Hyponatraemia (QDx3d QW (N = 25)): 0 (0%)
Grade 3 or greater TEAE: Hypophsphataemia (QDx3d QW (N = 25)): 3 (12%)
Grade 3 or greater TEAE: Lymphopenia (QDx3d QW (N = 25)): 2 (8%)
Grade 3 or greater TEAE: Mucosal Inflammation (QDx3d QW (N = 25)): 4 (16%)
Grade 3 or greater TEAE: Muscular weakness (QDx3d QW (N = 25)): 1 (4%)
Grade 3 or greater TEAE: Nausea (QDx3d QW (N = 25)): 1 (4%)
Grade 3 or greater TEAE: Neutropenia (QDx3d QW (N = 25)): 0 (0%)
Grade 3 or greater TEAE: Pruritus (QDx3d QW (N = 25)): 1 (4%)
Grade 3 or greater TEAE: Rash (QDx3d QW (N = 25)): 1 (4%)
Grade 3 or greater TEAE: Thrombocytopenia (QDx3d QW (N = 25)): 0 (0%)
Grade 3 or greater TEAE: Vomiting (QDx3d QW (N = 25)): 1 (4%)
Patients Reporting at least one Grade 3 or greater TEAE (QDx3d QW (N = 25)): 18 (72%)
Grade 3 or greater TEAE: Anaemia (QDx5d QW (N = 15)): 1 (7%)
Grade 3 or greater TEAE: Aspartate aminotransferase increase (QDx5d QW (N = 15)): 1 (7%)
Grade 3 or greater TEAE: Asthenia (QDx5d QW (N = 15)): 1 (7%)
Grade 3 or greater TEAE: Blood creatinine increase (QDx5d QW (N = 15)): 0 (0%)
Grade 3 or greater TEAE: Deep vein thrombosis (QDx5d QW (N = 15)): 0 (0%)
Grade 3 or greater TEAE: Diarrhoea (QDx5d QW (N = 15)): 0 (0%)
Grade 3 or greater TEAE: Disease progression (QDx5d QW (N = 15)): 0 (0%)
Grade 3 or greater TEAE: Fatigue (QDx5d QW (N = 15)): 2 (13%)
Grade 3 or greater TEAE: Gamma-glutamyltransferase increase (QDx5d QW (N = 15)): 1 (7%)
Grade 3 or greater TEAE: Hyperglycaemia (QDx5d QW (N = 15)): 1 (7%)
Grade 3 or greater TEAE: Hypokalaemia (QDx5d QW (N = 15)): 0 (0%)
Grade 3 or greater TEAE: Hyponatraemia (QDx5d QW (N = 15)): 0 (0%)
Grade 3 or greater TEAE: Hypophsphataemia (QDx5d QW (N = 15)): 2 (13%)
Grade 3 or greater TEAE: Lymphopenia (QDx5d QW (N = 15)): 1 (7%)
Grade 3 or greater TEAE: Mucosal Inflammation (QDx5d QW (N = 15)): 3 (20%)
Grade 3 or greater TEAE: Muscular weakness (QDx5d QW (N = 15)): 0 (0%)
Grade 3 or greater TEAE: Nausea (QDx5d QW (N = 15)): 1 (7%)
Grade 3 or greater TEAE: Neutropenia (QDx5d QW (N = 15)): 1 (7%)
Grade 3 or greater TEAE: Pruritus (QDx5d QW (N = 15)): 0 (0%)
